The results in this text go back to US8815919B2, “Oxadiazole derivatives” (Merck Serono SA, priority 2009, dated 2014).

One may read the Ki as a dissociation constant, usually derived from enzyme kinetics or from competition with a known ligand. As a reminder, the EC50 is the concentration needed to bring the measured effect to its halfway point. High values mean weaker potency, low ones greater potency.

In assay [1] the target is T1, S1P1 (Homo sapiens, UniProt P21453). The assay is described as follows: Receptor binding assay, [33P]sphingosine 1-phosphate competition, S1P1 membranes, WGA SPA beads. Put shortly:
(§1)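 Competition of [33P]S1P ([…]) on CHO cell membranes with WGA SPA beads in 50 mM HEPES pH 7.5, 5 mM MgCl2, 100 mM NaCl, 0.4% fatty acid-free BSA; 60 min at RT. Triplicates normalised to total binding and nonspecific binding (1000-fold excess unlabeled S1P).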
Target sequence in this assay (P21453 whole entry, species assumed): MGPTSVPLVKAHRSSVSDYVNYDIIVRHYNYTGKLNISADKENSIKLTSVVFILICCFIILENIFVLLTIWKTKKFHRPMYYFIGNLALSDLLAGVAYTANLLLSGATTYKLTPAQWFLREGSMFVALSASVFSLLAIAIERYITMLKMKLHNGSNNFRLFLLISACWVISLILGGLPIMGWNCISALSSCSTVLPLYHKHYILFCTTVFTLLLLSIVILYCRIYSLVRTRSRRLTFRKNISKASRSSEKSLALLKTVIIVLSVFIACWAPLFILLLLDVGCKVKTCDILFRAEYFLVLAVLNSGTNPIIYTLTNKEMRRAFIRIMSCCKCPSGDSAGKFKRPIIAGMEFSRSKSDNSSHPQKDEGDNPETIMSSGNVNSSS

The next assay concerns the target S1P3 (Homo sapiens, UniProt Q99500). The assay is described as follows: Receptor binding assay, [33P]sphingosine 1-phosphate competition, S1P3 membranes, WGA SPA beads. Summed up: as §1
The target in assay [2] is T1, S1P1. The assay is described as follows: S1P1 internalization assay in S1P1-U2OS cells (S1P1-EGFP), cell imaging. The class given is cell-based. Also on record: host or cells: U2OS (human bone osteosarcoma epithelial cells), CMV promoter, geneticin selection. The conditions noted are these: 1 hour incubation. Put shortly:
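U2OS cells stably expressing human S1P1-EGFP, plated overnight in 1% FCS medium, then serum-starved 2 h in 0.1% fatty-acid-free BSA before 1 h compound exposure at 37 °C. After PFA fixation and Hoechst staining, internalization imaged as EGFP spot count per nucleus.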
Target sequence in this assay (P21453 whole entry): as the sequence (P21453 whole entry, species assumed) above

Where [3] appears, read: 96 well-plate, read-out: S1P1 binding Ki (M) (96 well-plate).
Where [4] appears, read: 384 well-plate, read-out: S1P1 binding Ki (M) (384 well-plate).
[5] abbreviates: 96 well-plate, read-out: S1P3 binding Ki (M) (96 well-plate).
Where [6] appears, read: 384 well-plate, read-out: S1P3 binding Ki (M) (384 well-plate).

Structures can show the parent of a compound that is named as a salt. Where two headings read alike, the source gives them in different places.

Sequence of S1P3 (Q99500 whole entry, species assumed): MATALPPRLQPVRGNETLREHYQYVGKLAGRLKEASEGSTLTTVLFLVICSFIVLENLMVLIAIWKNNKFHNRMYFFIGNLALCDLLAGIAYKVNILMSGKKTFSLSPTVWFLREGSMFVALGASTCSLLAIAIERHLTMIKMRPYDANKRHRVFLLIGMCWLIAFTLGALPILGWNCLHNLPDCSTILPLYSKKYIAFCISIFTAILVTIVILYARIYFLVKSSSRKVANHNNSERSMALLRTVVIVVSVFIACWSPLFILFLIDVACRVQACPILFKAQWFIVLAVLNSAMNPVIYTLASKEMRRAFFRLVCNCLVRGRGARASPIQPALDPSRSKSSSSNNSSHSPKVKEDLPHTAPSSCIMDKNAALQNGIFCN

Regarding `COCc1cc(-c2nc(-c3ccc(CN(C)CC(=O)O)c(F)c3)no2)ccc1-c1cccc(F)c1C` [Example 91, N-(2-fluoro-4-{5-[3′-fluoro-2-(methoxymethyl)-2′-methylbiphenyl-4-yl]-1,2,4-oxadiazol-3-yl}benzyl)-N-methylglycine, hydrochloride salt], the Ki at S1P1 [1] (setting [3]) was 1.63e-10 M; on S1P1 [1] (setting [4]), 1.13e-09 M; on S1P3 (setting [5]), 2e-07 M; on S1P3 (setting [6]), 3.35e-07 M. Besides, the EC50 on S1P1 [2] is 5.53 nM.
In the case of `CCOc1cc(-c2nc(-c3ccc(CN(C)CC(=O)O)c(F)c3)no2)ccc1-c1ccccc1C` [Example 92, N-{4-[5-(2-ethoxy-2′-methylbiphenyl-4-yl)-1,2,4-oxadiazol-3-yl]-2-fluorobenzyl}-N-methylglycine, hydrochloride salt], the figures for the Ki at S1P1 [1] (setting [3]) and on S1P3 (setting [5]) were 1.72e-10 M and 9.91e-08 M, respectively. Further, the EC50 at S1P1 [2] worked out at 7.91 nM.
As to `COCc1cc(-c2nc(-c3cc(Cl)cc(CN(C)CC(=O)O)c3)no2)ccc1-c1ccccc1C` [Example 93, N-(3-chloro-5-{5-[2-(methoxymethyl)-2′-methylbiphenyl-4-yl]-1,2,4-oxadiazol-3-yl}benzyl)-N-methylglycine, hydrochloride salt], the results for the Ki at S1P1 [1] (setting [3]) and at S1P3 (setting [5]) were 3.96e-10 M and 9.4e-08 M, respectively. The compound also had an EC50 at S1P1 [2] of 26.5 nM.
As for `COCc1cc(-c2nc(-c3ccc(CN(C)CC(=O)O)cc3C)no2)ccc1-c1ccccc1C` [Example 102, 2-((4-(5-(2-(methoxymethyl)-2′-methylbiphenyl-4-yl)-1,2,4-oxadiazol-3-yl)-3-methylbenzyl)(methyl)amino)acetic acid], the Ki at S1P1 [1] (setting [4]) stood at 1.44e-09 M; at S1P3 (setting [5]), 2.9e-07 M; on S1P3 (setting [6]), 6.99e-07 M. On S1P1 [2], this compound showed a concentration giving a half-maximal response (EC50) of 13.7 nM.
For the compound `COCc1cc(-c2nc(-c3ccc(CNCC(=O)O)cc3C)no2)ccc1-c1ccccc1C` [Example 106, 2-(4-(5-(2-(methoxymethyl)-2′-methylbiphenyl-4-yl)-1,2,4-oxadiazol-3-yl)-3-methylbenzylamino)acetic acid], the Ki at S1P1 [1] (setting [4]) turned out to be 4.66e-10 M; at S1P3 (setting [5]), 1.59e-07 M; at S1P3 (setting [6]), 2.96e-07 M. The compound also returned an EC50 at S1P1 [2] of 4.12 nM.
For the compound `Cc1cc(CNCC(=O)O)ccc1-c1noc(-c2ccc(-c3ccccc3C)c(C(F)(F)F)c2)n1` [Example 107, 2-(3-methyl-4-(5-(2′-methyl-2-(trifluoromethyl)biphenyl-4-yl)-1,2,4-oxadiazol-3-yl)benzylamino)acetic acid], the Ki was 4.79e-10 M at S1P1 [1] (setting [4]) and 2.12e-07 M at S1P3 (setting [6]). The same compound gave an EC50 on S1P1 [2] of 2.84 nM.
Turning to `COCc1cc(-c2nc(-c3cccc(CN(CCC(=O)O)C(C)C)c3)no2)ccc1-c1ccccc1C` [Example 108, N-isopropyl-N-(3-{5-[2-(methoxymethyl)-2′-methylbiphenyl-4-yl]-1,2,4-oxadiazol-3-yl}benzyl)-beta-alanine, hydrochloride salt], the inhibition constant Ki turned out to be 5.06e-10 M at S1P1 [1] (setting [4]) and 1.1e-06 M on S1P3 (setting [6]). For the same compound, on S1P1 [2], the EC50 stood at 14 nM.
With `COCc1cc(-c2nc(-c3ccc(CN(C)CC(=O)O)cc3)no2)ccc1-c1ccccc1Cl` [Example 118, N-(4-{5-[2′-chloro-2-(methoxymethyl)biphenyl-4-yl]-1,2,4-oxadiazol-3-yl}benzyl)-N-methylglycine, hydrochloride salt], the figures for the Ki at S1P1 [1] (setting [4]) and on S1P3 (setting [6]) were 1.1e-09 M and 5.67e-07 M, respectively. For the same compound, the EC50 at S1P1 [2] is 9.94 nM.
As for `COCc1cc(-c2nc(-c3ccc(CN(C)CC(=O)O)c(F)c3)no2)ccc1-c1ccccc1Cl` [Example 119, N-(4-{5-[2′-chloro-2-(methoxymethyl)biphenyl-4-yl]-1,2,4-oxadiazol-3-yl}-2-fluorobenzyl)-N-methylglycine, hydrochloride salt], the figures for the Ki at S1P1 [1] (setting [4]) and at S1P3 (setting [6]) were 9.55e-10 M and 3.83e-07 M, respectively. This compound also showed an EC50 at S1P1 [2] of 11.5 nM.
Take `COCc1cc(-c2nc(-c3ccc(CN(C)CC(=O)O)c(F)c3)no2)ccc1-c1cccc(F)c1Cl` [Example 121, N-(4-{5-[2′-chloro-3′-fluoro-2-(methoxymethyl)biphenyl-4-yl]-1,2,4-oxadiazol-3-yl}-2-fluorobenzyl)-N-methylglycine, hydrochloride salt]: the results for the Ki at S1P1 [1] (setting [4]) and at S1P3 (setting [6]) were 1.54e-09 M and 5.26e-07 M, respectively. The compound also yielded an EC50 at S1P1 [2] of 6.56 nM.
For `COCc1cc(-c2nc(-c3ccc(CN(C)CC(=O)O)cc3)no2)ccc1-c1cccc(F)c1Cl` [Example 122, N-(4-{5-[2′-chloro-3′-fluoro-2-(methoxymethyl)biphenyl-4-yl]-1,2,4-oxadiazol-3-yl}benzyl)-N-methylglycine, hydrochloride salt], the Ki at S1P1 [1] (setting [4]) was determined as 1.31e-09 M; at S1P3 (setting [6]), 2.5e-06 M. In addition, on S1P1 [2], the half-maximal effective concentration (EC50) was 5.1 nM.
The corresponding values for `CCc1cc(-c2noc(-c3ccc(-c4ccccc4C)c(COC)c3)n2)ccc1CN(C)CC(=O)O` [Example 124, 2-((2-ethyl-4-(5-(2-(methoxymethyl)-2′-methylbiphenyl-4-yl)-1,2,4-oxadiazol-3-yl)benzyl)(methyl)amino)acetic acid] are 1.98e-09 M, 4.1e-06 M and 23.2 nM.
`COCc1cc(-c2nc(-c3ccc(CN(C)CC(=O)O)c(C)c3)no2)ccc1-c1ccccc1C` [Example 125, 2-((4-(5-(2-(methoxymethyl)-2′-methylbiphenyl-4-yl)-1,2,4-oxadiazol-3-yl)-2-methylbenzyl)(methyl)amino)acetic acid]: the Ki is 2.31e-09 M on S1P1 [1] (setting [4]) and 1.92e-06 M on S1P3 (setting [6]). The same compound showed an EC50 on S1P1 [2] of 7.65 nM.
In the case of `COCc1cc(-c2nc(-c3cc(CN(C)CC(=O)O)cc(F)c3F)no2)ccc1-c1ccccc1C` [Example 126, N-(3,4-difluoro-5-{5-[2-(methoxymethyl)-2′-methylbiphenyl-4-yl]-1,2,4-oxadiazol-3-yl}benzyl)-N-methylglycine, hydrochloride salt], the inhibition constant Ki at S1P1 [1] (setting [4]) came to 2.88e-09 M; at S1P3 (setting [6]), 6.55e-07 M. This compound also gave an EC50 at S1P1 [2] of 47 nM.
The corresponding values for `COCc1cc(-c2nc(-c3ccc(CN(C)CC(=O)O)cc3)no2)ccc1-c1cc(F)ccc1C` [Example 127, N-(4-{5-[5′-fluoro-2-(methoxymethyl)-2′-methylbiphenyl-4-yl]-1,2,4-oxadiazol-3-yl}benzyl)-N-methylglycine, hydrochloride salt] are 1.12e-09 M, 7.6e-07 M and 8.68 nM.
Turning to `COCc1cc(-c2nc(-c3ccc(CN(C)CC(=O)O)c(Cl)c3)no2)ccc1-c1ccccc1C` [Example 128, 2-((4-(5-(2-(methoxymethyl)-2′-methylbiphenyl-4-yl)-1,2,4-oxadiazol-3-yl)-2-chlorobenzyl)(methyl)amino)acetic acid], the Ki is 1.45e-09 M at S1P1 [1] (setting [4]) and 5.66e-07 M on S1P3 (setting [6]). The compound further yielded an EC50 on S1P1 [2] of 13.3 nM.
Take `Cc1ccccc1-c1ccc(-c2nc(-c3ccc(CN(C)CC(=O)O)cc3)no2)cc1C` [Example 130, N-{4-[5-(2,2′-dimethylbiphenyl-4-yl)-1,2,4-oxadiazol-3-yl]benzyl}-N-methylglycine, hydrochloride salt]: the Ki on S1P1 [1] (setting [3]) is 8.34e-10 M; at S1P1 [1] (setting [4]) it was 2.53e-09 M; at S1P3 (setting [6]), 5.38e-06 M. In addition, a half-maximal response on S1P1 [2] (EC50) required 23.3 nM.
As for `Cc1ccccc1-c1ccc(-c2nc(-c3ccc(CN(C)CC(=O)O)c(F)c3)no2)cc1C` [Example 131, N-{4-[5-(2,2′-dimethylbiphenyl-4-yl)-1,2,4-oxadiazol-3-yl]-2-fluorobenzyl}-N-methylglycine, hydrochloride salt], the Ki worked out at 1.68e-09 M at S1P1 [1] (setting [4]) and 1.98e-06 M on S1P3 (setting [6]). The same compound gave an EC50 at S1P1 [2] of 16.2 nM.
